# Source: US8178530B2, “Imidazolopyrazine compounds useful for the treatment of degenerative and inflammatory diseases” (Janssen Pharmaceutica NV, priority 2006, dated 2012)
# Legend:
# MAPKAPK5 = biological target: T1, MAPKAPK5 (Homo sapiens, UniProt Q8IW41); experiment: MAPKAP-K5 assay (FlashPlate, 33P-ATP); format: biochemical; settings: 0.6 μM ATP, 30 minutes at room temperature
# T1 construct: 1 mU MAPKAP-K5
# T1 sequence (Q8IW41 1-473): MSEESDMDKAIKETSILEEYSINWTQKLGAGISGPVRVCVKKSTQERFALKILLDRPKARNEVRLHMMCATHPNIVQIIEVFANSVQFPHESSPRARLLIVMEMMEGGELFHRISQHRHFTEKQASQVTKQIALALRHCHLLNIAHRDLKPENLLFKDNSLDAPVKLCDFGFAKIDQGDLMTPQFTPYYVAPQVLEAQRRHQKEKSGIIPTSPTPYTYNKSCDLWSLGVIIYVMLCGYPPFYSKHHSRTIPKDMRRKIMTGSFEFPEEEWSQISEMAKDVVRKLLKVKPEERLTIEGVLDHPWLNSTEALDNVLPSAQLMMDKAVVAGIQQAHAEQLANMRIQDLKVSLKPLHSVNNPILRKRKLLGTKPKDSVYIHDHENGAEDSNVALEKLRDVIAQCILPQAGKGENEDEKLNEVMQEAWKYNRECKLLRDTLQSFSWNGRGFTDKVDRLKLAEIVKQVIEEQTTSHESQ
# Method: 3 μM MAPKAP-K5 peptide substrate
# MMP1 expression by SFs = experiment: 'MMP assay': MMP1 expression by 'complex trigger' activated synovial fibroblasts (MMP1 ELISA); format: cell-based, human; settings: Homo sapiens, Fibroblast, RASFs, 48 hrs
# Method: A 384-well format ELISA for measurement of MMP1 is developed. Various primary antibodies are tested, as well as various ELISA protocols. The following protocol is developed and validated to measure MMP1 levels in SF supernatant in 384 well plates: white Lumitrac 600 384 well plates (Greiner) are coated with 2 μg/mL anti-MMP1 antibody MAB1346 (Chemicon). The antibody is diluted in buffer 40 (1.21 g Tris base (Sigma), 0.58 g NaCl (Calbiochem) and 5 ml 10% NaN3 (Sigma) in 1 L milliQ water and adjusted to pH 8.5). After overnight incubation at 4° C., plates are washed with PBS (80 g NaCl, 2 g KCl (Sigma), 11.5 g Na2HPO4.7H2O and 2 g KH2PO4 in 10 L milliQ; pH 7.4) and blocked with 100 μL/well Casein buffer (2% Casein (VWR International) in PBS). Next day, casein buffer is removed from ELISA plates and replaced by 50 μL/well EC buffer (4 g casein, 2.13 g Na2HPO4 (Sigma), 2 g bovine albumin (Sigma), 0.69 g NaH2PO4.H2O (Sigma), 0.5 g CHAPS (Roche), 23.3 g NaCl, 4 mL 0.5 M EDTA pH 8 (Invitrogen), 5 mL 10% NaN3 in 1 L milliQ and adjusted to pH 7.0). 0.25 mM DTT (Sigma) is added to the thawed samples plates. After removal of the EC buffer, 20 μL of sample is transferred to the ELISA plates. After overnight incubation at 4° C. plates are washed twice with PBS and once with PBST (PBS with 0.05% Tween-20 (Sigma)) and incubated with 35 μL/well biotinylated anti-MMP1 antibody solution (R&D). This secondary antibody is diluted in buffer C (0.82 g NaH2PO4.H2O, 4.82 g Na2HPO4, 46.6 g NaCl, 20 g bovine albumin and 4 mL 0.5M EDTA pH 8 in 2 L milliQ and adjusted to pH 7.0) at a concentration of 5 μg/mL. After 2 h of incubation at RT, plates are washed as described above and incubated with 50 μL/well streptavidin-HRP conjugate (Biosource). Streptavidin-HRP conjugate is diluted in buffer C at a concentration of 0.25 μg/mL. After 45 min, plates are washed as described above and incubated for 5 min with 50 μL/well BM Chem ELISA Substrate (Roche). Readout is performed on the Luminoscan Ascent Luminometer (Labsystems) with an integration time of 200 msec or with an Envision reader (Perkin Elmer).
# The increase of MMP1 expression by SFs upon treatment with cytokines relevant in the field of RA (TNF-α, IL1β and OSM) or a combination thereof is shown in FIG. 2 as white bars. For this experiment, SFs are seeded in 96 well plates, 3,000 cells/well. 24 h later, the medium is changed to M199 medium supplemented with 1% FBS. One day after the medium change, cytokines or combinations thereof are added to the cultures, each cytokine being added to a final concentration of 25 ng/mL. 72 h after cytokine addition, the supernatant is collected and processed in the MMP1 ELISA as described in the protocol given above. In parallel with this experiment, SFs are triggered, using the same protocol, with the supernatant of THP1 cells (2-fold diluted in M199+1% FBS) treated with the same cytokines or combinations of cytokines for 48 h in M199 medium+1% FBS. The induction of the MMP1 expression by SFs triggered with the supernatants of TNF-α-treated THP1 cells is stronger (>4.5 fold induction) as compared to the SFs triggered with recombinant TNF-α alone (3-fold induction) and almost equals the 5-fold induction obtained by a mixture of 3 purified cytokines (TNF-α, IL1βb, OSM). […] As the role of TNF-α in the RA pathogenesis is validated (TNF-α-blockers such as Infliximab and Etanercept show some efficacy in the treatment of RA patients) and the THP-1 cells are representative for monocytes/macrophages present in the joint of RA patients, the TNF-α-based trigger mixture prepared by contacting THP-1 cells with TNF-α will contain factors present in the joints of RA patients and subsequently is relevant to RA. This TNF-α-based complex trigger, further referred to as the ‘complex trigger’, will further be used as basis for the ‘MMP assay’.
# Dexamethasone is shown to dose-dependently reduce amounts of MMP1 produced by complex trigger activated SFs. […]
SMILES,IC50 (MAPKAPK5),EC50 (MMP1 expression by SFs)
NC(=O)c1ccc(Nc2ncc(-c3cn[nH]c3)n3cc(Br)nc23)cc1 [Compound 37],> 1000 nM,> 1000 nM
CCN(CC)CCNC(=O)c1ccc(Nc2ncc(-c3nn[nH]n3)n3ccnc23)cc1 [Compound 68],> 1000 nM,> 1000 nM
CN1CCN(C(=O)c2ccc(Nc3ncc(-c4cn[nH]c4)n4ccnc34)cc2)CC1 [Compound 57],101 to 500 nM,> 1000 nM
CCN(CC)CCNC(=O)c1ccc(Nc2ncc(-c3ccsc3)n3ccnc23)cc1 [Compound 73],> 1000 nM,> 1000 nM
CCN(CC)CCNC(=O)c1ccc(Nc2ncc(-c3ccc(CC(=O)O)cc3)n3ccnc23)cc1 [Compound 76],> 1000 nM,> 1000 nM
CCN(CC)CCNC(=O)c1ccc(Nc2ncc(-c3cncc4ccccc34)n3ccnc23)cc1 [Compound 77],> 1000 nM,> 1000 nM
CCN(CC)CCNC(=O)c1ccc(Nc2ncc(C#N)n3ccnc23)cc1 [Compound 101],> 1000 nM,> 1000 nM
CN1CCN(c2ccc(Nc3ncc(-c4ccc(C(=O)O)cc4)n4ccnc34)cc2)CC1 [Compound 43],> 1000 nM,> 1000 nM
CC(=O)Nc1ccc(Nc2ncc(-c3cn[nH]c3)n3ccnc23)cc1 [Compound 31],501 to 1000 nM,> 1000 nM
COc1cccc(Nc2ncc(-c3cn[nH]c3)n3ccnc23)c1 [Compound 16],> 1000 nM,> 1000 nM
NC(=O)c1ccc(-c2cnc(Nc3ccc(-n4cncn4)cc3)c3nccn23)cc1 [Compound 134],> 1000 nM,101 to 500 nM
CN1CCN(c2ccc(Nc3ncc(-c4ccc(=O)[nH]c4)n4ccnc34)cc2)CC1 [Compound 109],> 1000 nM,> 1000 nM
NC(=O)c1ccc(-c2cnc(Nc3ccc(C(=O)NCCO)cc3)c3nccn23)cc1 [Compound 49],> 1000 nM,> 1000 nM
O=C(O)c1ccc(Nc2ncc(-c3cn[nH]c3)n3ccnc23)cc1 [Compound 23],> 1000 nM,> 1000 nM
CS(=O)(=O)Nc1ccc(Nc2ncc(-c3cn[nH]c3)n3ccnc23)cc1 [Compound 30],501 to 1000 nM,> 1000 nM
CCN(CC)CCNC(=O)c1ccc(Nc2ncc(-c3ccc(-c4nn[nH]n4)cc3)n3ccnc23)cc1 [Compound 60],> 1000 nM,> 1000 nM
CCN(CC)CCNC(=O)c1ccc(Nc2ncc(-c3ccnn3C)n3ccnc23)cc1 [Compound 88],> 1000 nM,> 1000 nM
O=C(O)c1cnc(Nc2ccc(N3CCOCC3)cc2)c2nccn12 [Compound 63],> 1000 nM,> 1000 nM
c1cn2c(-c3ccc4[nH]ccc4c3)cnc(Nc3ccc(N4CCOCC4)cc3)c2n1 [Compound 21],> 1000 nM,> 1000 nM
CCN(CC)CCNC(=O)c1ccc(Nc2ncc(-c3ccc(O)c(OC)c3)n3ccnc23)cc1 [Compound 65],> 1000 nM,> 1000 nM
NCc1cccc(CNC(=O)c2ccc(Nc3ncc(-c4cn[nH]c4)n4ccnc34)cc2)c1 [Compound 95],> 1000 nM,101 to 500 nM
COC(=O)c1cccc(Nc2ncc(-c3cn[nH]c3)n3ccnc23)c1 [Compound 20],> 1000 nM,> 1000 nM
c1cn2c(-c3nn[nH]n3)cnc(Nc3ccc(N4CCOCC4)cc3)c2n1 [Compound 62],> 1000 nM,> 1000 nM
c1cn2c(-c3cn[nH]c3)cnc(Nc3ccc4[nH]ccc4c3)c2n1 [Compound 27],501 to 1000 nM,> 1000 nM

# Second part, led by results:
IC50 (MAPKAPK5),SMILES,EC50 (MMP1 expression by SFs)
101 to 500 nM,"NC(=O)CN1CCC(c2ccc(Nc3ncc(-c4ccc5c(c4)CNC5=O)n4ccnc34)cc2)CC1 [Compound 226, 2-(4-{4-[5-(1-Oxo-2,3-dihydro-1H-isoindol-5-yl)-imidazo[1,2-a]pyrazin-8-ylamino]-phenyl}piperidin-1-yl)acetamide]",> 1000 nM
> 1000 nM,FC(F)(F)CN1CCC(c2ccc(Nc3ncc(-c4cn[nH]c4)n4ccnc34)cc2)CC1 [Compound 196],> 1000 nM
501 to 1000 nM,"CC(C)N1CCN(c2ccc(Nc3ncc(-c4cn[nH]c4)n4ccnc34)cn2)CC1 [Compound 201, [6-(4-Isopropylpiperazin-1-yl)pyridin-3-yl]-[5-(1H-pyrazol-4-yl)-imidazo[1,2-a]pyrazin-8-yl]amine]",> 1000 nM
101 to 500 nM,"CC(C)N1CCC(c2ccc(Nc3ncc(-c4cn[nH]c4)n4ccnc34)cc2)CC1 [Compound 202, [4-(1-Isopropylpiperidin-4-yl)phenyl]-[5-(1H-pyrazol-4-yl)imidazo[1,2-a]pyrazin-8-yl]amine]",> 1000 nM
501 to 1000 nM,Nc1ccc(Nc2ncc(-c3cn[nH]c3)n3ccnc23)cn1 [Compound 207],> 1000 nM
501 to 1000 nM,NC(=O)c1c(F)cc(-c2cnc(Nc3ccc(OCCN4CCOCC4)cc3)c3nccn23)cc1F [Compound 216],> 1000 nM
> 1000 nM,"NC(=O)c1ccc(-c2cnc(Nc3ccc(-n4cc(-c5ccccn5)nn4)cc3)c3nccn23)cc1 [Compound 154, 4-{8-[4-(4-Pyridin-2-yl-[1,2,3]triazol-1-yl)-phenylamino]-imidazo[1,2-a]pyrazin-5-yl}-benzamide]",1 to 100 nM
> 1000 nM,NC(=O)c1ccc(-c2cnc(Nc3ccc(OCc4cccnc4)cc3)c3nccn23)cc1F [Compound 147],101 to 500 nM
1 to 100 nM,"CC(C)N1CCC(c2ccc(Nc3ncc(-c4ccc5c(c4)CNC5=O)n4ccnc34)cc2)CC1 [Compound 206, 5-{8-[4-(1-Isopropylpiperidin-4-yl)phenylamino]-imidazo[1,2-a]pyrazin-5-yl}-2,3-dihydroisoindol-1-one]",> 1000 nM
101 to 500 nM,O=C1NCc2cc(-c3cnc(Nc4ccc(N5CCOCC5)cn4)c4nccn34)ccc21 [Compound 211],> 1000 nM
101 to 500 nM,"CC(C)N1CCN(c2ccc(Nc3ncc(-c4coc(C(N)=O)c4)n4ccnc34)cn2)CC1 [Compound 209, 4-{8-[6-(4-Isopropyl-piperazin-1-yl)-pyridin-3-ylamino]-imidazo[1,2-a]pyrazin-5-yl}-furan-2-carboxylic acid amide]",> 1000 nM
